Reference: patent US9518988B2, “Antibodies and methods of using same for treating ErbB/ErbB ligands associated diseases” (Yeda Research and Development Co. Ltd., priority 2010, dated 2016)

What was measured:
[1] = system: EGFR phosphorylation on tyrosine residues; assay: Biological activity of purified recombinant ligands: EGFR phosphorylation on tyrosine residues; assay type: cell-based; conditions: TRX-TGFα 2, 20, 200 ng/ml; TRX-HB-EGF 3, 30, 300 ng/ml; 10 minute incubation
Method: FIGS. 1A-E depict construction, expression and biological activity of recombinant EGF-like ligands and detection of TGFα blocking antibodies using a GPI-anchored TGFα. […] Residue numbers are indicated. […] Molecular weight markers are indicated in kilodaltons. […] Cells were seeded in a 24-well plate, washed and incubated with increasing concentrations of the purified fusion proteins (TRX-TGFα: 2, 20, 200 ng/ml; TRX-HB-EGF: 3, 30, 300 ng/ml). EGF (10 ng/ml) was used as a positive control. After 10 minute incubation, the cells were lysed, and cleared extracts were immunoblotted (IB) with an anti-phosphotyrosine (P-Tyr) antibody. […] Residue numbers refer to TGFα. Cysteine residues of the EGF-like domain are highlighted. […] Cells were seeded in a 24-well plate, washed and incubated with or without TGFα (5 ng/ml), and with increasing volumes of an anti-serum from TGFα-immunized mice (0.2, 2, 4, 6, 8 and 10 μl of serum diluted in 120 μl total; control: 10 μl serum from a naive animal). An anti-phosphotyrosine mAb was used to detect phosphorylated EGFR.
Cells were seeded in a 24-well plate. Twenty-four hours later, cells were washed and incubated with different agents. After ten minutes of incubation, the cells were lysed and cleared extracts were electrophoresed, then immunoblotted with an anti-phosphotyrosine mAb, an anti-EGFR mAb (HeLa) or with an anti-ErbB-3 mAb (T47D).

[2] = system: BxPC3 pancreatic tumor cells; assay: Cell proliferation assay (MTT), BxPC3; assay type: cell-based, human; conditions: gemcitabine 50 mg/ml
Method: (§1) FIGS. 4A-B depict effective inhibition of proliferation and tumorigenicity (in vitro and in vivo) of human pancreatic cancer cells by a combination of anti-TGFα and anti-HB-EGF mAbs. […] BxPC3 cells (2×10^4) were seeded in a 96-well plate and allowed to adhere overnight, prior to the addition of anti-TGFα or anti-HB-EGF mAbs (each at 30 μg/ml), or a mixture of both mAbs (each at 15 μg/ml). Cell proliferation was determined in hexaplicates after 96 hours using the MTT method. Averages±S.D. are shown. The experiment was repeated twice. […] Female nude mice (6 week old) were inoculated subcutaneously with 2×10^6 BxPC3 cells. […]
(§2) FIGS. 5A-B depict effective inhibition of human pancreatic cancer cell growth (in vitro and in vivo) by a combination of two mAbs and chemotherapy. […] Of note, body weight monitoring detected no consistent trends and differences other than a slow gain of weight (data not shown).
BxPC3 pancreatic tumor cells were plated on 96-well plates (2,000 cells/well), in hexaplicates. […] Proliferation was measured after 24, 48 and 72 hours using the MTT method as was previously described [Mossmann T. J., Immunol Methods. […] Absorbance was determined at 570 nm.
BxPC3 pancreatic tumor cells were plated on 96-well plates (2,000 cells/well), in hexaplicates. […] Proliferation was measured after 24, 48 and 72 hours using the MTT method. […] Absorbance was determined at 570 nm.

BxPC3 xenografts = assay: Anti-tumor activity in nude mice, BxPC3 xenografts; assay type: in vivo; conditions: two intraperitoneal injections (days 16 and 21), 150 mg/kg body weight
Method: as §1, §2
(§3) Female atymic NCr-nude mice (6 week old; Harlen, Israel) were inoculated subcutaneously with 2×10^6 human cancer cells. […] Tumor volumes were monitored twice a week, and body weights were measured once a week.
as §3

Molecule	ability to induce EGFR phosphorylation on tyrosine residues [1]	growth inhibition of cultured BxPC3 cells (MTT), gemcitabine alone [2]	inhibition of tumor growth, BxPC3 xenografts (BxPC3 xenografts)
TGFα: EGF-like domain of TGFα expressed in bacteria as thioredoxin (TRX) fusion protein, used as immunogen	functionally active conformation		
Nc1ccn([C@@H]2O[C@H](CO)[C@@H](O)C2(F)F)c(=O)n1 [gemcitabine]		growth inhibitory effect	more than 85%
HB-EGF: EGF-like domain of HB-EGF expressed in bacteria as thioredoxin (TRX) fusion protein, used as immunogen (protein) DLQEADLDLLRVTLSSKPQALATPNKEEHGKRKKKGKGLGKKRDPCLRKYKDFCIHGECKYVKELRAPSCICHPGYHGERCHGLSL	functionally active conformation		
